Results published in patent US20080219917A1, “HARMONIZED WATER AND AQUEOUS SOLUTIONS” (DVB GLOBAL, priority 2007, published 2008).

Legend:
Salmonella typhimurium = Salmonella typhimurium reverse mutation assay (AMES test); type: cell-based
Description: Toxicity test for harmonized, Modified Fullerenes has shown this substance is not cytotoxic when the material is subjected to a Salmonella typhimurium reverse mutation assay (AMES test). The Ames test is used to determine any potential mutagenic activity of the test HMF material. The HMF material was exposed to a large number of test organism in an agar plate. The agar plates were monitored for growth of revertants (organisms mutating to the wild type). The number of wild type organisms are counted to estimate the mutagenic potential of the HMF material.

[1] = test system: human dermal fibroblasts, human liver carcinoma cells (HepG2), and neuronal human astrocytes; conditions: same experiments (Sayes, 2004); cited from earlier work

Substance | cytotoxicity (Salmonella typhimurium; Toxicity test, AMES test) | mutagenic potential (growth of revertants) (Salmonella typhimurium; agar plate) | cytotoxicity [1]
[C60(OH)10-36]^Φ/φ [HMF] | not cytotoxic | not mutagenic | –
C60(OH)24 [Modified Fullerenes] | – | – | no cytotoxicity
